The record followed here is patent publication US20220370553A1, “PREBIOTIC-INDUCED ANTI-TUMOR IMMUNITY” (Sanford Burnham Prebys Medical Discovery Institute, priority 2019, published 2022).

Test [1] relates to N-Ras mutant melanoma tumor cells (MaNRAS1). The test is described as follows: Growth of N-Ras mutant melanoma tumors with prebiotics with or without MEKi. The test is classed as in vivo, C57BL/6 mice.
Experimental: FIG. 7A C57BL/6 mice were injected (s.c.) with NRAS^Q61K mouse melanoma cells (1×10^6) (n=10). The mice were administered with either a control diet alone, or one supplemented with mucin (3%) in drinking water or inulin (15%) in chow starting 14 days prior to tumor inoculation. When tumors reached a volume of 10-20 mm^2, mice were treated with MEKi (PD325901) administered by gavage (10 mg/kg, daily), alone or in combination with inulin or mucin, as indicated. Tumor volume was assessed every 4 days. […] Data are representative of two independent experiments. Graphs show the mean±s.e.m. *P<0.05, **P<0.005, ***P<0.001, ****P<0.0001 by two-way ANOVA with Tukey's correction (A) or one-way ANOVA with Tukey's correction (B-D).
Animals and tumor models. […] Male 6-8-week-old mice were used for all experiments. […] All mice were fed an autoclaved chow diet ad libitum (LabDiet 5K67, Purina Foods). […] Mouse selection for experiments was not formally randomized or blinded. For tumor growth experiments, mice were injected subcutaneously (s.c.) with 1×10^6 tumor cells. Tumor size was measured twice a week for calculation of tumor volume. Tumors were weighed at the time of excision.
Mucin and inulin treatment. For mucin treatment, C57BL/6 mice were subjected to control or water supplemented with 3% mucin (Lee Biosolutions) prior to (14 days) and during tumor inoculation. Water was changed every other day. For inulin treatment, mice were received a diet (TD. 94048, AIN-93M, Purified Diet, ENVIGO) enriched with long-chain inulin by substituting all of sucrose and 5% of corn starch in the control diet or a modified diet (TD. 160256, Modified AIN-93M, Diet w 15% inulin, ENVIGO) prior to (14 days) and during tumor inoculation. Diets were changed 2 times a week.
Experiments were conducted to determine whether prebiotics impacted the effectiveness of MEK inhibitor (MEKi) treatment on tumor growth control and treatment resistance.
For test [2], the system named is CD8+ T cells. The test is described as follows: qRT-PCR of cytokine and chemokine mRNAs in CD8+ T cells in vitro. The test is classed as cell-based, mice. The settings on record: 0.05 or 0.5 mg/ml in vitro. The text has this:
Data are representative of two independent experiments. Graphs show the mean±s.e.m. *P<0.05, **P<0.005, ***P<0.001, ****P<0.0001 one-way ANOVA with Tukey's correction.
RNA extraction and qRT-PCR analyses. Total RNA was extracted from tumor samples individually using the RNeasy Fibrous Tissue Midi kit (QIAGEN) or cells treated as indicated using High Capacity Reverse Transcriptase kits (Invitrogen) according to the manufacturer's protocol. Purity and concentration of extracted RNA were checked and quantified by reading at 260 and 280 nm in a NanoDrop spectrophotometer (Thermo Fisher). The qRT-PCR analyses were performed using Syber Green RT-PCR kits (Invitrogen) on a Bio-Rad CFX Connect Real-Time system. Expression levels normalized to 18S or Tubb5 controls.

Test [3] relates to Bacteroides spp. The test is described as follows: Anaerobic fecal cultures with 1% prebiotic, 16S rDNA quantification. The test is classed as cell-based. The settings on record: fecal cultures of 12 healthy human subjects, 3-4 days at 37° C. How it is done: (§1) Fecal samples derived from 12 healthy human subjects were cultivated in the presence or absence of 1% prebiotic. 16S rDNA sequences corresponding to Bifidobacterium, Bacteroides and Akkermansia muciniphila were quantified. Data are representative of three independent experiments. Graphs show the mean±s.e.m. *P<0.05, **P<0.005, ***P<0.001, ****P<0.0001 by one-way ANOVA with Tukey's correction.
(§2) Anaerobic fecal cultures. […] Anaerobic cultures (9% H2, 81% N2) were grown statically for 3-4 days at 37° C. and grown to approximate saturation.
(§3) Chemically-defined medium (CDM). CDM contains 50 mM HEPES, 2.2 mM KH2PO4, 10 mM Na2HPO4, 60 mM NaHCO3, 4 mM of each amino acid, except leucine (15 mM), 10 mL ATCC, Trace Mineral Supplement. CDM contained nucleoside bases (100 mg/L), inosine, xanthine, adenine, guanine, cytosine, thymidine and uracil (400 mg/L). CDM contained choline (100 mg/L), ascorbic acid (500 mg/L), lipoic acid (2 mg/L), hemin (1.2 mg/L) and myo-inositol (400 mg/L). Resazurin (1 mg/L) was added to visually monitor dissolved oxygen. The pH of the media was adjusted to 7.4.
(§4) Fecal samples derived from 12 healthy, vegetarian human subjects were cultivated in a chemically-defined medium the presence or absence of 1% prebiotic. Anaerobic cultures (9% H2, 81% N2) were grown statically for 3-4 days at 37° C. and grown to approximate saturation.

Test [4] has as its system Bifidobacterium spp. The test is described as above. The settings on record: in two of these cultures. It is filed as cell-based, human. How it is done:
as §1, §2, §3, §4

Test [5] deals with intestinal epithelial cells. The test is described as follows: qRT-PCR of inflammatory mediators in intestinal epithelial cells in vivo. Further details: species or system C57BL/6 mice. The settings on record: inulin 15% in chow, naïve mice, 2 weeks. For orientation: Quantitative PCR measures a nucleic acid by following its amplification.
From the text: FIG. 15 illustrates effects of mucin and inulin on expression of inflammatory mediators by intestinal epithelial cells in vivo. qRT-PCR data are shown for mRNA levels of the indicated inflammatory mediators in intestinal epithelial cells from mucin or inulin-treated mice (n=4). Data are representative of two independent experiments. Graphs show the mean s.e.m. *P<0.05, **P<0.005, one-way ANOVA with Tukey's correction.
Isolation of intestinal epithelial cells. A 10 cm section of mouse small intestine was opened longitudinally, minced, washed in 150 mM NaCl containing 1 mM DTT, and then resuspended in dissociation buffer (130 mM NaCl, 10 mM EDTA, 10 mM Hepes [pH 7.4], 10% FCS, and 1 mM DTT). The sections were incubated at 37° C. for 30 min with vigorous shaking to release the epithelial cells from the lamina propria. The epithelial cell suspension was then carefully aspirated, centrifuged, and washed in ice-cold PBS.
The effect of mucin and inulin on intestinal epithelial cells was evaluated in vivo. To this end, mucin (3% in drinking water) or inulin (15% in chow) were administered to naïve C57BL/6 mice for 2 weeks. Intestinal epithelial cells were isolated from small intestine and were assessed for the level of select cytokines and chemokines that are implicated in the activation of the immune response and anti-tumor immunity.
Test [6] relates to Yumm1.5 tumors. As to the kind of experiment: Flow cytometry of tumor-infiltrating immune cells in Yumm1.5 tumors. The test is classed as in vivo, C57BL/6 mice. The settings on record: 20 days following tumor inoculation. The text has this:
(§5) FIG. 2B, Quantification of tumor-infiltrating effector (CD44hi) CD4+, CD8+ and CD45+ T cells from mice treated as in FIG. 2A (n=10). FIG. 2C, Quantification of tumor-infiltrating, IFN-g-producing CD4+ T cells from mice treated as in FIG. 2A (n=10). FIG. 2D, Quantification of tumor-infiltrating total DCs and subsets in mice treated as in FIG. 2A (n=10). FIG. 2E, MFI of MHC class I and MHC class II on DCs from the tumors of mice treated as in FIG. 2A (n=10). […] Graphs show the mean s.e.m. *P<0.05, **P<0.005, ***P<0.001,****P<0.0001 by two-way ANOVA with Tukey's correction (A) and by one-way ANOVA with Tukey's correction (B-E).
(§6) Tumor digestion. Tumors were excised, minced, and digested with 1 mg/ml collagenase D (Roche) and 100 μg/ml DNase I (Sigma) at 37° C. for 1 h. Digests were then passed through a 70-μm cell strainer to generate a single-cell suspension. The cells were washed twice with PBS containing 2 mM EDTA, and then stained for flow cytometry.
(§7) Flow cytometry. Tumor-derived single-cell suspensions were washed twice with FACS staining buffer, fixed for 15 min with 1% formaldehyde in PBS, washed twice, and resuspended in FACS staining buffer. For intracellular cytokine staining, cells were resuspended in complete RPMI-1640 (containing 10 mM HEPES, 1% non-essential amino acids and L-glutamine, 1 mM sodium pyruvate, 10% heat-inactivated fetal bovine serum (FBS), and antibiotics) supplemented with 50 U/mL IL-2 (NCI), […] brefeldin A (BFA, Sigma), and incubated with phorbol myristate acetate (10 ng/ml) and ionomycin (0.5 μg/ml) at 37° C. The cells were then fixed and permeabilized using a Cytofix/Cytoperm Kit (BD Biosciences) before staining. Antibodies to the following proteins were used: CD45.2 (104), CD8a (53-6.7), CD4 (GK1.5), CD44 (IM7), TNF-α (MP6-XT22), IFN-γ (XMG1.2), CD11c (N418), CD11b (M1/70), MHC class II (M5/114.15.2), PDCA (129c1), and B220 (RA3-6B2) from BioLegend, and antibodies to IL-2 (JES6-5H4) and MHC class I (AF6-88.5.5.3) from eBioscience. All data were collected on an LSRFortessa (BD Biosciences) and analyzed using FlowJo Software (Tree Star).

The subject of test [7] is gut microbiota. It is filed as in vivo, C57BL/6 mice. As for the experimental part: Bacterial DNA extraction and 16S library preparation. […] Mouse fecal pellets were frozen on dry ice, and stored at −80° C. Bacterial DNA was extracted using the QIAmp Fast DNA Stool Mini Kit (Qiagen). To ensure efficient cell lysis, a 5-min bead-beating step using a Mini-Beadbeater-16 was included (Biospec Products, OK, USA). Library preparation for the Illumina MiSeq platform was performed by amplification of the V3-V4 region of the bacterial 16S ribosomal DNA gene using
C. Adapter and barcode sequences for dual indices were used as described by Illumina. PCR clean up steps were performed with QIAquick 96-PCR Clean up kit (Qiagen, Germany), and library quantification was performed using a KAPA Library Quantification Kit for Illumina platforms (KAPA Biosystems, MA, USA). An Experion Automated Gel Electrophoresis System (Bio-Rad, CA, USA) was used to measure the DNA concentration and purity of the pooled libraries. The 16S libraries were sequenced at Novagene (Beijing, China) and the SBP sequencing Core.
16S sequencing data processing. The original FASTQ files from Illumina 250 basepair paired-end sequencing of the samples were processed using a novel 16S amplicon sequencing pipeline HiMap (http://github.com/taolonglab/himap; BioRxiv 565572). The output of HiMap is Operational Strain Unit (OSU) which contains one or more bacterial strains that best match the 16S sequence and cannot be further distinguished. The percentage similarity between the 16S sequence and the aligned region of 16S rRNA genes of the strains in the OSU is indicated. OSUs mapped to the same strains are grouped together (adding read counts) if percentage similarities are within 3%. Read counts are converted into relative abundance as described in HiMap. Log 10-transformed relative abundances were used for comparisons between samples under different experimental conditions.

For test [8], the system named is MC-38 mouse colorectal cancer cells. As to the kind of experiment: Flow cytometry of tumor-infiltrating immune cells in MC-38 tumors. The test is classed as in vivo, C57BL/6 mice. How it is done:
as §6, §7
(§8) MC-38 mouse colorectal cancer cells (1×10^6) were inoculated, and diets were continued after inoculation.
On the technique in general: In flow cytometry, cells or beads pass a laser one at a time.

For test [9] the test system is unchanged. The test is described as follows: Growth of MC-38 colorectal cancer tumors in prebiotic-fed mice. The settings on record: 3% mucin in drinking water or 15% inulin diet from two weeks prior to inoculation. The test is classed as in vivo, C57BL/6 mice.
From the text: as §8

The subject of test [10] is Yumm1.5 tumors. The test is described as follows: Growth of Yumm1.5 melanoma tumors in prebiotic-fed mice. The settings on record: mucin 3% in drinking water or inulin 15% w/w chow from 2 weeks prior to inoculation of 1×10^6 Yumm1.5 cells. The test is classed as in vivo, C57BL/6 mice.
From the text: as §5

For `O=C(NOC[C@H](O)CO)c1ccc(F)c(F)c1Nc1ccc(I)cc1F` [MEKi, PD325901, reference compound], the “N-Ras mutant tumor growth” value in test [1] (MEKi (PD325901) 10 mg/kg daily by gavage, alone or with prebiotic) is “effectively controlled tumor growth”.

With inulin, in test [2], the “expression of multiple pro-inflammatory mediators in CD8+ T cells” value is reported as “increased expression”. Moreover, the “relative abundance of Bacteroides spp.” value in test [3] was “increased”. The Bifidobacterium spp. result in test [4] is listed as “strong increase”. Also, the “levels of NOD2, IL-6 and CXCL2 mRNA in intestinal epithelial cells” value in [5] is reported as “increased”. Moreover, in test [6], the “MHC class I and MHC class II on tumor-resident DCs” value is on record as “higher levels”; the “dendritic cell subsets including pDCs and CD8a+ conventional DCs in tumors” value is “increased”. Further, the “effector (CD44hi) CD4+ and CD8+ T cells, and CD45+ cells in tumors” value in [6] (compared to control mice) is reported as “enrichment”. Moreover, in test [7] (in the absence of MEKi), the “phylotype group related to Parasutterella excrementihominis” value was “notable increase” and the “taxa increased in relative abundance” value is recorded as “primarily increased the relative abundance of taxa mapped in or near Clostridium cluster XIVa”. In test [7] (inulin+MEKi treated mice compared to inulin alone), the Akkermansia muciniphila result is “robustly enriched”. Further, in test [8], the “CD4+ or CD8+ T cells, CD45+ cells, cytokine production, DCs and DC subsets in tumors” value is listed as “No differences”; the “anti-tumor immune responses, MHC class II and I expression on DCs” value is on record as “enhanced”. In addition, the “control of N-Ras mutant tumors” value in [1] (in the absence of MEKi, mucin 3% in water or inulin 15% in chow) was “modestly controlled”. Besides, the “intrinsic resistance of MaN-Ras melanoma cells to MEKi” value in test [1] (inulin-fed mice treated with MEKi) is “delayed”. The “growth of colon cancer MC-38 tumors” value in test [9] was “attenuated”. Also, in test [10], the melanoma tumor growth entry is “attenuated”.
